The values below come from ChEMBL document CHEMBL1201862, “PubChem BioAssay data set” (2004).

Some test systems named below: SK-OV-3; SK-MEL-2; CAKI-1; HCT-15; Malme-3M; HT-29; A549; T47D; A498; SF-295; SR; ACHN; LOX IMVI; RXF 393; RPMI-8226; TK-10; SN12C; NCI-H23; EKVX; M14.
Holding throughout (assay): NCI-60 cell line screen, 48 h

SMILES strings stand for the structures.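 Values below derive from 48-hour exposures of cells grown in 96-well plates, with endpoints linearly interpolated between the two concentrations bracketing the appropriate inhibition level. The concentration for 50% growth inhibition is given as GI50.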 The source made the active and inactive calls. No stated cut-off is given here; in the data, active = GI50 up to about 1.1 µM and inactive = higher. Bounds are passed on as bounds.

In the case of `Cc1ccc(-c2cn3c(nc4ccccc43)c(-c3ccccc3)n2)cc1`, the GI50 with SK-OV-3 is 18.3 µM (inactive); with SK-MEL-2 it was 18 µM (inactive); with CAKI-1 it was 37.7 µM (inactive); with HCT-15, greater than 100 µM; in the assay with Malme-3M it was > 83 µM (inactive); with HT-29, > 100 µM (inactive). The GI50 in the assay on A549 was > 100 µM (inactive); in the assay with T47D it was 32.1 µM (inactive); in the assay on A498, 30.9 µM (inactive); in the assay with SF-295, 19.8 µM (inactive); with SR, > 100 µM (inactive); in the assay with ACHN, 34 µM (inactive). The GI50 with LOX IMVI is > 100 µM (inactive); in the assay with RXF 393 it was 25.1 µM (inactive); with RPMI-8226 it was > 100 µM (inactive); in the assay on TK-10, 27.5 µM (inactive); in the assay with SN12C, > 100 µM (inactive); in the assay on NCI-H23, 24 µM (inactive). Also, the GI50 with EKVX and in the assay on M14 was > 100 µM (inactive) each time.

As to `CN(C)C=O.O=C(Nc1nnn[nH]1)c1nc(O)cc(-c2ccccc2)n1`, the GI50 with SK-OV-3 was > 100 µM (inactive); with SK-MEL-2, > 100 µM (inactive); in the assay with CAKI-1, > 100 µM (inactive); in the assay with HCT-15, greater than 100 µM; with Malme-3M it was > 100 µM (inactive); with HT-29, > 100 µM (inactive). The GI50 with A549, in the assay on T47D, in the assay with A498, with SF-295, in the assay with SR and with ACHN was > 100 µM (inactive) throughout. Also, the GI50 in the assay on LOX IMVI, in the assay on RXF 393, in the assay with RPMI-8226, with TK-10, in the assay on SN12C and in the assay on NCI-H23 was > 100 µM (inactive) each time. In addition, the GI50 in the assay with EKVX and in the assay with M14 was > 100 µM (inactive) each time.

As for `CC1=C/C(=C(/c2ccc(O)c(C)c2)c2ccccc2C(=O)O)C=CC1=O`, the GI50 is 19.2 µM (inactive) in the assay with SK-OV-3; 20.6 µM (inactive) in the assay with SK-MEL-2; 17.6 µM (inactive) with CAKI-1; 21.4 µM in the assay on HCT-15; 24.9 µM (inactive) in the assay on Malme-3M; 21.9 µM (inactive) in the assay with HT-29. For the same molecule, the GI50 with A549 is 19.5 µM (inactive); in the assay on T47D it was 26.8 µM (inactive); in the assay with A498 it was 18.7 µM (inactive); with SF-295 it was 21.8 µM (inactive); in the assay with SR it was 20.7 µM (inactive); in the assay with ACHN it was 18.3 µM (inactive). Moreover, the GI50 was 20.7 µM (inactive) in the assay on LOX IMVI; 17.4 µM (inactive) with RXF 393; 20 µM (inactive) with RPMI-8226; 17.3 µM (inactive) with TK-10; 19.6 µM (inactive) in the assay with SN12C; 20.2 µM (inactive) in the assay with NCI-H23. Moreover, the GI50 in the assay on EKVX is 19.4 µM (inactive); in the assay with M14, 18.3 µM (inactive).

Consider `O=C1C(c2c(O)[nH]c3ccc(Br)cc23)=Nc2ccc(Br)cc21`, for which the GI50 in the assay on SK-OV-3 was 28.9 µM (inactive); in the assay with SK-MEL-2, > 100 µM (inactive); in the assay on CAKI-1, > 100 µM (inactive); with HCT-15, 43 µM; in the assay on Malme-3M, 46 µM (inactive); in the assay on HT-29, 48.4 µM (inactive). In addition, the GI50 in the assay with A549 is 32.7 µM (inactive); with T47D, > 100 µM (inactive); in the assay on A498 it was > 100 µM (inactive); in the assay on SF-295, > 100 µM (inactive); with SR it was 32.1 µM (inactive); in the assay with ACHN, > 100 µM (inactive). For the same molecule, the GI50 is 62.1 µM (inactive) in the assay on LOX IMVI; 16.6 µM (inactive) with RXF 393; > 100 µM (inactive) in the assay on RPMI-8226; 72.9 µM (inactive) in the assay on TK-10; 45.2 µM (inactive) in the assay with SN12C; 27.5 µM (inactive) in the assay on NCI-H23. The values for the GI50 in the assay on EKVX and in the assay on M14 were 38.1 µM (inactive) and 97.9 µM (inactive), respectively.

With `Nc1nc(Cl)nc(NCc2ccccc2)n1`, the GI50 with SK-OV-3 was > 100 µM (inactive); in the assay with SK-MEL-2, > 100 µM (inactive); in the assay on CAKI-1, > 100 µM (inactive); in the assay on HCT-15, greater than 100 µM; with Malme-3M, > 100 µM (inactive); in the assay with HT-29 it was > 100 µM (inactive). For the same molecule, the GI50 was > 100 µM (inactive) in the assay on A549; > 100 µM (inactive) in the assay with T47D; > 100 µM (inactive) with A498; > 100 µM (inactive) in the assay on SF-295; 67.8 µM (inactive) in the assay with SR; > 100 µM (inactive) in the assay on ACHN. The GI50 in the assay with LOX IMVI, in the assay with RXF 393, in the assay with RPMI-8226, with TK-10, in the assay on SN12C and in the assay with NCI-H23 was > 100 µM (inactive) each time. For the same molecule, the GI50 in the assay with EKVX and in the assay with M14 was > 100 µM (inactive) throughout.

As for `O=C1C=CC(=O)c2c1ccc1c3ccccc3n(Cc3cccc([N+](=O)[O-])c3)c21`, the GI50 with SK-OV-3 is > 100 µM (inactive); in the assay with SK-MEL-2 it was 39.8 µM (inactive); in the assay on CAKI-1, 14.7 µM (inactive); in the assay with HCT-15, 21.5 µM; with Malme-3M, 19.5 µM (inactive); in the assay on HT-29, 30.4 µM (inactive). In addition, the GI50 with A549 is > 100 µM (inactive); in the assay with T47D, 26.4 µM (inactive); in the assay with A498 it was 58.3 µM (inactive); in the assay on SF-295, > 100 µM (inactive); in the assay with SR, 12.8 µM (inactive); in the assay on ACHN it was 18.2 µM (inactive). In addition, the GI50 was 33.9 µM (inactive) in the assay with LOX IMVI; 22.5 µM (inactive) in the assay with RXF 393; 17.8 µM (inactive) in the assay with RPMI-8226; 20 µM (inactive) with TK-10; 21.8 µM (inactive) in the assay on SN12C; 21.7 µM (inactive) with NCI-H23. Further, the GI50 is > 100 µM (inactive) in the assay on EKVX and 27.7 µM (inactive) in the assay with M14.

As for `CC(=O)N[C@@H](Cc1ccc(O)cn1)C(=O)NCc1cccc(F)c1`, the GI50 in the assay with SK-OV-3 is > 100 µM (inactive); in the assay on SK-MEL-2 it was > 100 µM (inactive); in the assay on CAKI-1, > 100 µM (inactive); in the assay on HCT-15 it was greater than 100 µM; in the assay on Malme-3M, > 100 µM (inactive); in the assay on HT-29, > 100 µM (inactive). For the same molecule, the GI50 in the assay with A549 is > 100 µM (inactive); in the assay on T47D, > 100 µM (inactive); in the assay on A498, > 100 µM (inactive); in the assay with SF-295, > 100 µM (inactive); in the assay on SR, 59.7 µM (inactive); in the assay with ACHN, > 100 µM (inactive). Besides, the GI50 in the assay on LOX IMVI, in the assay on RXF 393, in the assay with RPMI-8226, with TK-10, in the assay with SN12C and in the assay with NCI-H23 was > 100 µM (inactive) each time. The GI50 with EKVX and with M14 was > 100 µM (inactive) each time.
